Measured values reported in PubChem BioAssay (NCI).
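Test compounds were applied to cells in 96-well plates for 48 hours at 5 doses. Definition used: TGI = concentration required for complete inhibition of growth.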

Columns and labels:
Experiment in all cases: NCI anticancer screen, dose series, 48 h
A498 renal = tested on: A498 renal
SW-620 colon = tested on: SW-620 colon
HL-60(TB) leukemia = tested on: HL-60(TB) leukemia
SNB-19 CNS = tested on: SNB-19 CNS
CAKI-1 renal = tested on: CAKI-1 renal
K-562 leukemia = tested on: K-562 leukemia
MCF7 breast = tested on: MCF7 breast
HS 578T breast = tested on: HS 578T breast
SF-295 CNS = tested on: SF-295 CNS
MDA-MB-435 = tested on: MDA-MB-435
MDA-N = tested on: MDA-N
OVCAR-4 ovarian = tested on: OVCAR-4 ovarian
UACC-62 melanoma = tested on: UACC-62 melanoma
RXF 393 renal = tested on: RXF 393 renal
OVCAR-8 ovarian = tested on: OVCAR-8 ovarian
BT-549 breast = tested on: BT-549 breast
IGROV1 ovarian = tested on: IGROV1 ovarian
SK-MEL-5 melanoma = tested on: SK-MEL-5 melanoma
DU-145 prostate = tested on: DU-145 prostate
ACHN renal = tested on: ACHN renal
HCT-15 colon = tested on: HCT-15 colon
SK-MEL-2 melanoma = tested on: SK-MEL-2 melanoma
HCT-116 colon = tested on: HCT-116 colon
NCI-H226 lung = tested on: NCI-H226 lung
SF-539 CNS = tested on: SF-539 CNS
SR leukemia = tested on: SR leukemia
786-0 renal = tested on: 786-0 renal
MOLT-4 leukemia = tested on: MOLT-4 leukemia
SF-268 CNS = tested on: SF-268 CNS
SN12C renal = tested on: SN12C renal
SK-MEL-28 melanoma = tested on: SK-MEL-28 melanoma
A549 NSCLC = tested on: A549 NSCLC
TK-10 renal = tested on: TK-10 renal
RPMI-8226 leukemia = tested on: RPMI-8226 leukemia
MDA-MB-231 breast = tested on: MDA-MB-231 breast
NCI/ADR-RES ovarian = tested on: NCI/ADR-RES ovarian
OVCAR-5 ovarian = tested on: OVCAR-5 ovarian
NCI-H23 lung = tested on: NCI-H23 lung
NCI-H460 lung = tested on: NCI-H460 lung
OVCAR-3 ovarian = tested on: OVCAR-3 ovarian
KM12 colon = tested on: KM12 colon
M14 melanoma = tested on: M14 melanoma
U251 CNS = tested on: U251 CNS
MALME-3M melanoma = tested on: MALME-3M melanoma
COLO 205 colon = tested on: COLO 205 colon
NCI-H522 lung = tested on: NCI-H522 lung
SNB-75 CNS = tested on: SNB-75 CNS
HCC-2998 colon = tested on: HCC-2998 colon
SK-OV-3 ovarian = tested on: SK-OV-3 ovarian
PC-3 prostate = tested on: PC-3 prostate
HOP-92 NSCLC = tested on: HOP-92 NSCLC
T-47D breast = tested on: T-47D breast
HT29 colon = tested on: HT29 colon
LOX IMVI melanoma = tested on: LOX IMVI melanoma
HOP-62 NSCLC = tested on: HOP-62 NSCLC
EKVX NSCLC = tested on: EKVX NSCLC
UACC-257 melanoma = tested on: UACC-257 melanoma
CCRF-CEM leukemia = tested on: CCRF-CEM leukemia
UO-31 renal = tested on: UO-31 renal

In the case of `COCCc1c(C)c(C#N)c2n(C)c3ccccc3n2c1=O`, the TGI (A498 renal) is reported as over 10 µM, the TGI (SW-620 colon) is reported as over 10 µM and the TGI (HL-60(TB) leukemia) is reported as over 10 µM. For the same molecule, the TGI (SNB-19 CNS) was over 10 µM, the TGI (CAKI-1 renal) was over 10 µM and the TGI (K-562 leukemia) was over 10 µM. The TGI (MCF7 breast) was over 10 µM, the TGI (HS 578T breast) was over 10 µM and the TGI (SF-295 CNS) was over 10 µM. It also gave a TGI (MDA-MB-435) of over 10 µM, a TGI (MDA-N) of over 10 µM and a TGI (OVCAR-4 ovarian) of over 10 µM. The TGI (UACC-62 melanoma) was over 10 µM, the TGI (RXF 393 renal) was over 10 µM and the TGI (OVCAR-8 ovarian) was over 10 µM. For the same molecule, the TGI (BT-549 breast) was over 10 µM, the TGI (IGROV1 ovarian) was over 10 µM and the TGI (SK-MEL-5 melanoma) was over 10 µM. The TGI (DU-145 prostate) was over 10 µM, the TGI (ACHN renal) was over 10 µM and the TGI (HCT-15 colon) was over 10 µM. The TGI (SK-MEL-2 melanoma) was over 10 µM, the TGI (HCT-116 colon) was over 10 µM and the TGI (NCI-H226 lung) was over 10 µM. The TGI (SF-539 CNS) was over 10 µM, the TGI (SR leukemia) was over 10 µM and the TGI (786-0 renal) was over 10 µM. It also gave a TGI (MOLT-4 leukemia) of over 10 µM, a TGI (SF-268 CNS) of over 10 µM and a TGI (SN12C renal) of over 10 µM. For the same molecule, the TGI (SK-MEL-28 melanoma) was over 10 µM, the TGI (A549 NSCLC) was over 10 µM and the TGI (TK-10 renal) was over 10 µM. It also gave a TGI (RPMI-8226 leukemia) of over 10 µM, a TGI (MDA-MB-231 breast) of over 10 µM and a TGI (NCI/ADR-RES ovarian) of over 10 µM. It also gave a TGI (OVCAR-5 ovarian) of over 10 µM, a TGI (NCI-H23 lung) of over 10 µM and a TGI (NCI-H460 lung) of over 10 µM. The TGI (OVCAR-3 ovarian) was over 10 µM, the TGI (KM12 colon) was over 10 µM and the TGI (M14 melanoma) was over 10 µM. It also gave a TGI (U251 CNS) of over 10 µM, a TGI (MALME-3M melanoma) of over 10 µM and a TGI (COLO 205 colon) of over 10 µM. The TGI (NCI-H522 lung) was over 10 µM, the TGI (SNB-75 CNS) was over 10 µM and the TGI (HCC-2998 colon) was over 10 µM. It also gave a TGI (SK-OV-3 ovarian) of over 10 µM, a TGI (PC-3 prostate) of over 10 µM and a TGI (HOP-92 NSCLC) of over 10 µM. The TGI (T-47D breast) was over 10 µM, the TGI (HT29 colon) was over 10 µM and the TGI (LOX IMVI melanoma) was over 10 µM. It also gave a TGI (HOP-62 NSCLC) of over 10 µM, a TGI (EKVX NSCLC) of over 10 µM and a TGI (UACC-257 melanoma) of over 10 µM.

Work on `C[N+](C)(C)CCOP(=O)(O)OP(=O)([O-])OCC1CCC(n2ccc(N)nc2=O)O1` (stereo not drawn) yielded a TGI (A498 renal) of over 100 µM, a TGI (SW-620 colon) of over 100 µM and a TGI (HL-60(TB) leukemia) of over 100 µM. For the same molecule, the TGI (SNB-19 CNS) was over 100 µM, the TGI (CAKI-1 renal) was over 100 µM and the TGI (K-562 leukemia) was over 100 µM. For the same molecule, the TGI (MCF7 breast) was over 100 µM, the TGI (CCRF-CEM leukemia) was over 100 µM and the TGI (HS 578T breast) was over 100 µM. For the same molecule, the TGI (SF-295 CNS) was over 100 µM, the TGI (MDA-MB-435) was over 100 µM and the TGI (MDA-N) was over 100 µM. For the same molecule, the TGI (OVCAR-4 ovarian) was over 100 µM, the TGI (UACC-62 melanoma) was over 100 µM and the TGI (RXF 393 renal) was over 100 µM. For the same molecule, the TGI (OVCAR-8 ovarian) was over 100 µM, the TGI (BT-549 breast) was over 100 µM and the TGI (IGROV1 ovarian) was over 100 µM. It also gave a TGI (SK-MEL-5 melanoma) of over 100 µM, a TGI (DU-145 prostate) of over 100 µM and a TGI (ACHN renal) of over 100 µM. The TGI (UO-31 renal) was over 100 µM, the TGI (HCT-15 colon) was over 100 µM and the TGI (SK-MEL-2 melanoma) was over 100 µM. It also gave a TGI (HCT-116 colon) of over 100 µM, a TGI (NCI-H226 lung) of over 100 µM and a TGI (SF-539 CNS) of over 100 µM. The TGI (SR leukemia) was over 100 µM, the TGI (786-0 renal) was over 100 µM and the TGI (MOLT-4 leukemia) was over 100 µM. For the same molecule, the TGI (SF-268 CNS) was over 100 µM, the TGI (SN12C renal) was over 100 µM and the TGI (SK-MEL-28 melanoma) was over 100 µM. For the same molecule, the TGI (A549 NSCLC) was over 100 µM, the TGI (TK-10 renal) was over 100 µM and the TGI (RPMI-8226 leukemia) was over 100 µM. The TGI (MDA-MB-231 breast) was over 100 µM, the TGI (NCI/ADR-RES ovarian) was over 100 µM and the TGI (OVCAR-5 ovarian) was over 100 µM. The TGI (NCI-H23 lung) was over 100 µM, the TGI (NCI-H460 lung) was over 100 µM and the TGI (OVCAR-3 ovarian) was over 100 µM. The TGI (KM12 colon) was over 100 µM, the TGI (M14 melanoma) was over 100 µM and the TGI (U251 CNS) was over 100 µM. For the same molecule, the TGI (MALME-3M melanoma) was over 100 µM, the TGI (COLO 205 colon) was over 100 µM and the TGI (NCI-H522 lung) was over 100 µM. The TGI (SNB-75 CNS) was over 100 µM, the TGI (HCC-2998 colon) was over 100 µM and the TGI (SK-OV-3 ovarian) was over 100 µM. For the same molecule, the TGI (PC-3 prostate) was over 100 µM, the TGI (HOP-92 NSCLC) was over 100 µM and the TGI (T-47D breast) was over 100 µM. For the same molecule, the TGI (HT29 colon) was over 100 µM, the TGI (LOX IMVI melanoma) was over 100 µM and the TGI (HOP-62 NSCLC) was over 100 µM. The TGI (EKVX NSCLC) was over 100 µM and the TGI (UACC-257 melanoma) was over 100 µM.

In the case of `C/C(CC(O)(C(F)(F)F)C(F)(F)F)=N\N`, the TGI (A498 renal) is reported as over 10 µM, the TGI (SW-620 colon) is reported as over 10 µM and the TGI (HL-60(TB) leukemia) is reported as over 10 µM. The TGI (SNB-19 CNS) was over 10 µM, the TGI (CAKI-1 renal) was over 10 µM and the TGI (K-562 leukemia) was over 10 µM. For the same molecule, the TGI (MCF7 breast) was over 10 µM, the TGI (CCRF-CEM leukemia) was over 10 µM and the TGI (HS 578T breast) was over 10 µM. It also gave a TGI (SF-295 CNS) of over 10 µM, a TGI (MDA-MB-435) of over 10 µM and a TGI (MDA-N) of over 10 µM. It also gave a TGI (OVCAR-4 ovarian) of over 10 µM, a TGI (UACC-62 melanoma) of over 10 µM and a TGI (RXF 393 renal) of over 10 µM. For the same molecule, the TGI (OVCAR-8 ovarian) was over 10 µM, the TGI (BT-549 breast) was over 10 µM and the TGI (IGROV1 ovarian) was over 10 µM. The TGI (SK-MEL-5 melanoma) was over 10 µM, the TGI (DU-145 prostate) was over 10 µM and the TGI (ACHN renal) was over 10 µM. The TGI (HCT-15 colon) was over 10 µM, the TGI (SK-MEL-2 melanoma) was over 10 µM and the TGI (HCT-116 colon) was over 10 µM. It also gave a TGI (NCI-H226 lung) of over 10 µM, a TGI (SF-539 CNS) of over 10 µM and a TGI (786-0 renal) of over 10 µM. It also gave a TGI (MOLT-4 leukemia) of over 10 µM, a TGI (SF-268 CNS) of over 10 µM and a TGI (SN12C renal) of over 10 µM. The TGI (SK-MEL-28 melanoma) was over 10 µM, the TGI (A549 NSCLC) was over 10 µM and the TGI (TK-10 renal) was over 10 µM. It also gave a TGI (RPMI-8226 leukemia) of over 10 µM, a TGI (MDA-MB-231 breast) of over 10 µM and a TGI (NCI/ADR-RES ovarian) of over 10 µM. For the same molecule, the TGI (OVCAR-5 ovarian) was over 10 µM, the TGI (NCI-H23 lung) was over 10 µM and the TGI (NCI-H460 lung) was over 10 µM. It also gave a TGI (OVCAR-3 ovarian) of over 10 µM, a TGI (KM12 colon) of over 10 µM and a TGI (M14 melanoma) of over 10 µM. It also gave a TGI (U251 CNS) of over 10 µM, a TGI (MALME-3M melanoma) of over 10 µM and a TGI (COLO 205 colon) of over 10 µM. The TGI (NCI-H522 lung) was over 10 µM, the TGI (SNB-75 CNS) was over 10 µM and the TGI (HCC-2998 colon) was over 10 µM. It also gave a TGI (SK-OV-3 ovarian) of over 10 µM, a TGI (PC-3 prostate) of over 10 µM and a TGI (HOP-92 NSCLC) of over 10 µM. For the same molecule, the TGI (T-47D breast) was over 10 µM, the TGI (HT29 colon) was over 10 µM and the TGI (LOX IMVI melanoma) was over 10 µM. The TGI (HOP-62 NSCLC) was over 10 µM, the TGI (EKVX NSCLC) was over 10 µM and the TGI (UACC-257 melanoma) was over 10 µM.
